Experimental data taken from PubChem BioAssay (NCI).
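All cell lines were grown in 96-well plates and treated with compound for 48 hours. Abbreviation: GI50, concentration required for 50% inhibition of growth. TGI marks complete inhibition of growth.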

What was measured:
Assay in all cases: NCI anticancer screen, dose series, 48 h
SF-539 CNS = system: SF-539 CNS
SF-295 CNS = system: SF-295 CNS
EKVX NSCLC = system: EKVX NSCLC
OVCAR-3 ovarian = system: OVCAR-3 ovarian
HCT-116 colon = system: HCT-116 colon
MOLT-4 leukemia = system: MOLT-4 leukemia
SN12C renal = system: SN12C renal
HOP-62 NSCLC = system: HOP-62 NSCLC
HOP-92 NSCLC = system: HOP-92 NSCLC
IGROV1 ovarian = system: IGROV1 ovarian
ACHN renal = system: ACHN renal
HT29 colon = system: HT29 colon
MDA-MB-231 breast = system: MDA-MB-231 breast
SK-OV-3 ovarian = system: SK-OV-3 ovarian
BT-549 breast = system: BT-549 breast
NCI-H460 lung = system: NCI-H460 lung
OVCAR-4 ovarian = system: OVCAR-4 ovarian
HL-60(TB) leukemia = system: HL-60(TB) leukemia
DU-145 prostate = system: DU-145 prostate
HS 578T breast = system: HS 578T breast
RXF 393 renal = system: RXF 393 renal
SK-MEL-5 melanoma = system: SK-MEL-5 melanoma
PC-3 prostate = system: PC-3 prostate
NCI/ADR-RES ovarian = system: NCI/ADR-RES ovarian
A498 renal = system: A498 renal
SNB-19 CNS = system: SNB-19 CNS
786-0 renal = system: 786-0 renal
KM12 colon = system: KM12 colon
SR leukemia = system: SR leukemia

CN(C)C(=O)c1cc2cnc(Nc3ccc(-c4csc5c(=S)cc(N6CCOCC6)oc45)cc3)nc2n1C1CCCC1
GI50 (SF-539 CNS): 517 nM | TGI (SF-539 CNS): 2030 nM | GI50 (SF-295 CNS): 672 nM | TGI (SF-295 CNS): > 13500 nM | GI50 (EKVX NSCLC): 792 nM | TGI (EKVX NSCLC): > 13700 nM | GI50 (OVCAR-3 ovarian): 910 nM | TGI (OVCAR-3 ovarian): > 50000 nM | GI50 (HCT-116 colon): 242 nM | TGI (HCT-116 colon): > 50000 nM | GI50 (MOLT-4 leukemia): 244 nM | TGI (MOLT-4 leukemia): > 50000 nM | GI50 (SN12C renal): 330 nM | TGI (SN12C renal): > 50000 nM | GI50 (HOP-62 NSCLC): 694 nM | TGI (HOP-62 NSCLC): > 50000 nM | GI50 (HOP-92 NSCLC): 115 nM | GI50 (IGROV1 ovarian): 509 nM | TGI (IGROV1 ovarian): > 50000 nM | GI50 (ACHN renal): 377 nM | TGI (ACHN renal): > 50000 nM | GI50 (HT29 colon): 515 nM | TGI (HT29 colon): > 50000 nM | GI50 (MDA-MB-231 breast): 249 nM | TGI (MDA-MB-231 breast): > 50000 nM | GI50 (SK-OV-3 ovarian): 2280 nM | TGI (SK-OV-3 ovarian): > 50000 nM | GI50 (BT-549 breast): 698 nM | TGI (BT-549 breast): 3830 nM | GI50 (NCI-H460 lung): 585 nM | TGI (NCI-H460 lung): > 50000 nM | GI50 (OVCAR-4 ovarian): 1030 nM | TGI (OVCAR-4 ovarian): > 50000 nM | GI50 (HL-60(TB) leukemia): 264 nM | TGI (HL-60(TB) leukemia): 1970 nM | GI50 (DU-145 prostate): 774 nM | TGI (DU-145 prostate): > 50000 nM | GI50 (HS 578T breast): 469 nM | TGI (HS 578T breast): 3980 nM | GI50 (RXF 393 renal): 139 nM | TGI (RXF 393 renal): 495 nM | GI50 (SK-MEL-5 melanoma): 715 nM | TGI (SK-MEL-5 melanoma): 2430 nM | GI50 (PC-3 prostate): 312 nM | TGI (PC-3 prostate): > 10800 nM | GI50 (NCI/ADR-RES ovarian): 1020 nM | TGI (NCI/ADR-RES ovarian): > 50000 nM | GI50 (A498 renal): 103 nM | TGI (A498 renal): 1120 nM | GI50 (SNB-19 CNS): 498 nM | TGI (SNB-19 CNS): > 34500 nM | GI50 (786-0 renal): 630 nM | TGI (786-0 renal): > 50000 nM | GI50 (KM12 colon): 180 nM | TGI (KM12 colon): > 50000 nM | GI50 (SR leukemia): 145 nM | TGI (SR leukemia): > 50000 nM
